{"source": "patent US10488418B2", "about": "“Fluorescence assay for intestinal permeability” (THE REGENTS OF THE UNIVERSITY OF CALIFORNIA, priority 2014, dated 2019)", "key": {"[1]": {"experiment": "Viologen based fluorescence assay for sugars in urine with 4,4′oBBV and HPTS", "set-up": "species or system human", "description": "(§1) A Marquardt 4-parameter curve fit was used. […] The g in urine/g ingested×100 yielded % ingested. Lactulose measurements were confirmed by enzyme assay.\nStatistics: The lower limit of detection (LLOD) was defined as the analyte concentration in the urine sample at which fluorescence intensity in the assay was 3 standard deviations above the mean baseline fluorescence. Similarly, the lower limit of quantification (LLOQ) was defined as 10 standard deviations above the mean baseline fluorescence. Coefficient of variation percent (CV %) was determined by averaging sets of samples each measured in 4 wells. Results are given as mean±SEM."}, "[2]": {"conditions": "human, in vivo", "procedure": "(§2) Intestinal permeability test in humans: Subjects consumed 0.5-1.0 L water the night before and in the morning about 3 hour prior to sample collection. The first morning urine was voided. No food or other beverages were consumed prior to the test. Permeability probes were ingested after baseline urine collection. […] Test subjects were permitted to drink water or coffee as desired. Light snacks were permitted after the fourth hour. Urine volumes were recorded and 50 mL was retained for analysis.\n(§3) Sample collection: Freshly collected urine (50 ml) was first centrifuged 2500 RCF at 4° C. for 10 minutes.\n(§4) Supernatants were pipetted 40 μL/well in duplicate into plates (#3694, Corning, USA). Fluorescence (Exc/Em 450/580 nm) was read on a plate reader (Infinite M200Pro, Tecan, Switzerland). Concentration was calculated as mg/mL and multiplied by total urine volume in mL, giving total mg in urine. The mg in urine/mg ingested×100 yielded % ingested.\n(§5) The SPE column was cleaned with MeOH and H2O between runs. […] Data was corrected for a 9% loss. After SPE, samples were directed to the various assays.\n(§6) Viologen method for lactulose and mannitol permeability in humans: Ready-made assay 96 well plates were prepared (#3694, Corning, 199 USA). A 4× premix buffer was prepared (0.1 M sodium phosphate, 0.1 M HEPES, 0.04% Triton X-100, pH 7.4). To this was added HPTS (16 μM) and quencher (1.6 mM 4,4′oBBV or 2.0 mM 4,4′oMBV), each 4 times above final concentration. The different viologen concentrations were chosen to achieve similar extents of quenching in the absence of sugar (about 20% of free fluorophore) while preserving a strong signal to noise (S/N). Blank wells were given 10 μl 4× premix buffer with neither HPTS nor viologen. Some wells received 16 μM HPTS without quencher to determine maximum possible fluorescence. All other wells received 10 μl of the complete 4× premix. Those premixes containing 4,4′oBBV were continuously vortexed because the mixture is a suspension. Plates were sealed with plate tape and stored at 4° C. until use.\n(§7) Upon running an assay, 30 μl of standards or samples were pipetted into wells. Final concentrations were 4 μM HPTS and 400 μM 4,4′oBBV or 500 μM 4,4′oMBV. Urine samples were placed in both blank wells (for individual sample blanking) and wells containing complete 4× premix. Plates were put on a shaker for 1 hr, RT. During this time, sugars interacted with the HPTS-viologen complex, liberating HPTS into solution. Plates were then centrifuged at 2500 RCF for 10 minutes at room temperature to pull down remaining HPTS-quencher particulate matter. Plate tape was removed and fluorescence read on a plate reader (Tecan M-200 Infinite, gain 70, 404/535 nm). The height was adjusted to read from the top of the solution (18 mm). […] A Marquardt 4-parameter curve fit was used. Sugar concentrations were calculated as g/mL and multiplied by total urine volume in mL, giving total amount of urine in grams. Values were corrected for percentage recovery from the C18 SPE step. The g in urine/g ingested×100 yielded % ingested. Lactulose measurements were confirmed by enzyme assay. Mannitol measurements were confirmed by HPLC-Evaporative Light Scattering Detector (HPLC-ELSD) using a C8 pre-column and Prevail Carbohydrate ES 5μ 250×4.6 mm column (Grace Davison 224 Discovery Sciences, Ill., USA) with 80:20 MeCN/H2O."}, "[3]": {"experiment": "Quenching of HPTS fluorescence by boronic acid viologen in absence of sugar", "protocol": "as §1\nThe term “Initial quench” as used herein refers to HPTS fluorescence in presence of quencher and absence of sugar (maximum achievable quench) as a percent of maximum possible fluorescence with 4 μM free HPTS in absence of any quencher. The term “LLOD” as used herein refers to analyte concentration in original urine sample (as opposed to final concentration in the assay) at which the fluorescence signal equals or exceeds 3 standard deviations above mean assay noise level. The term “LLOQ” as used herein refers to analyte concentration in original urine sample at which the fluorescence signal equals or exceeds 10 standard deviations above mean assay noise level. The term “range” as used herein refers to urine concentrations found in healthy volunteers before transforming data to % ingested. The term “Mean±SEM” as used herein refers to standard mean plus or minus standard error of mean as generally understood in medical science. The term “CV %” as used herein refers to intra-assay coefficient of variation for samples."}, "[4]": {"experiment": "Intestinal permeability test in humans (urine excretion of ingested probes)", "procedure": "as §2, §3, §4, §5, §6, §7"}, "[5]": {"conditions": "viologen assay system, viologen not specified"}}, "note": "Read-outs that look alike come from different tables or passages of the source."}
{"smiles": "OC[C@H]1O[C@@H](O[C@@H]2[C@@H](CO)OC(O)(CO)[C@H]2O)[C@H](O)[C@@H](O)[C@H]1O", "note": "(mixture of isomers) [Lactulose, lactulose]", "values": [{"measurement": "signal stronger than fructose", "setting": "[1]; [5]", "result": "~20", "unit": "%"}, {"measurement": "Typical values for humans (urine concentration)", "setting": "[2]", "result": "0.2 to 1.5", "unit": "mM"}]}
{"smiles": "OB(O)c1ccccc1C[n+]1ccc(-c2cc[n+](Cc3ccccc3B(O)O)cc2)cc1", "note": "[4,4′oBBV, 1,1′-bis(2-boronobenzyl)-4,4′-bipyridinium]", "values": [{"measurement": "Relative selectivity", "setting": "[1]; 4,4′oBBV", "result": "lactulose>fructose>galactose"}]}
{"smiles": "OB(O)c1ccccc1C[n+]1ccc(-c2cc[n+](Cc3ccccc3)cc2)cc1", "note": "[4,4′oMBV, 1-(2-boronobenzyl)-1′-benzyl-4,4′-bipyridinium]", "values": [{"measurement": "Initial Quench % Max", "setting": "[3]; HPTS fluorescence with quencher and no sugar, as percent of 4 μM free HPTS, final 400 μM 4,4′oBBV or 500 μM 4,4′oMBV", "result": 16, "unit": "%"}, {"measurement": "higher concentration required than 4,4′oBBV to achieve the same extent of quenching", "setting": "[3]; HPTS quenching, 0 μM sugar", "result": "about 20%"}]}
{"smiles": "OC[C@@H](O)[C@@H](O)[C@H](O)[C@H](O)CO", "note": "[Mannitol, mannitol]", "values": [{"measurement": "Typical values for humans (urine concentration)", "setting": "[4]; human urine", "result": "1 to 10", "unit": "mM"}, {"measurement": "RANGE (urine concentrations found in healthy volunteers)", "setting": "[4]; human urine after oral 50 mg riboflavin, 5 g mannitol or 10 g lactulose, mean±SEM, sugars measured with 4,4′oBBV", "result": "3929 ± 972", "unit": "µM"}, {"measurement": "time of return to baseline in urine after ingestion", "setting": "[2]", "result": "about 6 hours"}]}
{"smiles": "Cc1cc2nc3c(=O)[nH]c(=O)nc-3n(C[C@H](O)[C@H](O)[C@H](O)CO)c2cc1C", "note": "[Riboflavin, riboflavin]", "values": [{"measurement": "Typical values for humans (urine concentration)", "setting": "[2]", "result": "0.01 to 0.1", "unit": "mM"}, {"measurement": "time of return to baseline in urine after ingestion", "setting": "[2]", "result": "about 6 hours"}]}
{"smiles": "OC[C@H]1O[C@@H](O[C@H]2[C@H](O)[C@@H](O)C(O)O[C@@H]2CO)[C@H](O)[C@@H](O)[C@H]1O", "note": "(stereo partly shown) [lactose]", "values": [{"measurement": "response of 4,4′oBBV to sugar", "setting": "[1]; 10 mM sugar", "result": "essentially no response"}]}
{"smiles": "OC[C@H]1O[C@H](O[C@]2(CCl)O[C@H](CCl)[C@@H](O)[C@@H]2O)[C@H](O)[C@@H](O)[C@H]1Cl", "note": "[sucralose]", "values": [{"measurement": "interference with the viologen based method", "setting": "[1]", "result": "Neither sucrose nor sucralose interfere"}]}
{"smiles": "OC[C@H]1O[C@@](CO)(O[C@H]2O[C@H](CO)[C@@H](O)[C@H](O)[C@H]2O)[C@@H](O)[C@@H]1O", "note": "[sucrose]", "values": [{"measurement": "interference with the viologen based method", "setting": "[1]", "result": "Neither sucrose nor sucralose interfere"}, {"measurement": "fluorescence signal", "setting": "[1]; [5]", "result": "no signal"}]}
{"smiles": "O=C(CO)[C@@H](O[C@H]1O[C@H](CO)[C@@H](O)[C@H](O)[C@H]1O)[C@H](O)[C@H](O)CO", "note": "[turanose]", "values": [{"measurement": "fluorescence as percent of fructose", "setting": "[1]; [5]", "result": "~30", "unit": "%"}, {"measurement": "fluorescence as percent of the lactulose fluorescence", "setting": "[1]; [5]", "result": "~20", "unit": "%"}]}
